Assay results from patent publication US8058228B2, “Leptin peptide antagonists” (Boston Biomedical Research Institute, priority 2004, dated 2011).

System: OB-R
Experiment: p-Stat3 expression in rabbit endometrial cells (immunocytochemistry, Western blot)
Assay type: cell-based
Conditions: for effect on basal expression of p-Stat3 / effect on leptin up-regulation of Stat3 phosphorylation: rESC and rEEC; for effect on basal expression of p-Stat3: Western blot, 3 to 300 nM; for effect on leptin up-regulation of Stat3 phosphorylation: peptides 3 to 300 nM, antibody 1-10 μg/ml
Experimental: Rabbit endometrial cells (5×10^5 cells/well) were cultured for 5-9 days in DMEM-MCDB105 (3:1) medium containing 10% fetal bovine serum (FBS), 5 μg/ml insulin, 1% amphopthericin B, 100 μg/ml streptomycin and 100 U/ml penicillin until confluent layers were obtained. The cells were washed twice with 100 mM phosphate saline buffer (PBS) −2% BSA (w/v), pH 7.2 and cultured for an additional 2 days in the same medium but without FBS (basal medium). This procedure was performed to reduce any effects of cytokines from FBS on the phosphorylation rate of Stat3 as well as the expression of other cytokines and their receptors. Cells were washed as described before and cultured in basal medium containing leptin (0-10 nM), OB-R antibody (1-20 μg/ml) and/or LPA-2 peptides (0-300 nM). Cultures were stopped at 24 h and the cells were used for immunocytochemistry, binding studies and western blot analysis. The conditioned media were collected, lyophilized and stored at −80° C. for ELISA determinations. Duplicate wells were run for each treatment and the experiments repeated at least three times with different cell preparations from different rabbits. Controls were the same cellular preparations cultured in basal medium containing non-specific goat IgGs and LPA-2Sc.
The rabbit endometrial cells were cultured as described above in duplicate on 8-well glass-bottom culture plates (Nalgene Nunc International, Naperville, Ill.) and fixed with methanol at −20° C. for 20 min for immunocytochemical studies. All the antibodies tested were diluted in PBS-2% BSA (w/v; buffer A).
Anti IL-1R tl (1 μg/ml), anti LIF-R (2 μg/ml), anti vimentin (1:50), anti cytokeratin (1:50) and anti p-Stat3 (1 μg/ml) antibodies were used to assess the expression of the respective antigens by rEEC and rESC cultures. After incubation with primary antibodies the cells were incubated with a streptavidin-biotin-alkaline phosphatase system according to the manufacturer directions (Vectastain, ABC-AP kit, Vector Laboratories, Burlingame, Calif.) and counter-stained with hematoxylin (Dako). Negative controls included cell preparations in which the primary antibodies were substituted by irrelevant species matched IgGs.
After culture in the presence of leptin, LPAs or antibodies, the endometrial cells were washed with ice-cold PBS and lysed by homogenization on ice with lysis buffer [[…] Tris, pH 7.4, containing 137 nM NaCl, 2 mM EDTA, 10% glycerol, 50 mM β-glycerophosphate, 50 nM NaF, 1% Nonidet P-40, 2 mM phenyl-methylsulfonyl fluoride, 2 mM sodium orthovanadate, 100 μM antipain, 0.1 mg/ml trypsin inhibitor and protease cocktail inhibitor 1:50 (Sigma)]. Cellular lysates were centrifuged at 24000 g at 4° C. for 10 min. Protein concentrations were determined using the Bradford protein assay (BioRad Laboratories Inc., Hercules, Calif.).
Protein extracts from cell lysates were combined (1:1) with Laemmli buffer (2× concentrated) and 10 μg of proteins were loaded per lane on 7.5% (for p-Stat3, IL-1R tl and LIF-R) and 10% (for OB-R) SDS-PAGE gels. Electrophoresis was performed at 65 V for 1-1.5 h (BioRad, electrophoresis apparatus). Electroblotting onto 0.2 μm nitrocellulose membranes was performed at 22V overnight at 4° C. in 48 nM Tris-39 nM glycine buffer containing 0.037% SDS and 20% methanol. […]

Substance	effect on basal expression of p-Stat3	effect on leptin up-regulation of Stat3 phosphorylation (leptin 3 nM)	p-Stat3 expression after leptin (rESC, immunocytochemistry, leptin 3 nM)
SRNVIQISNDLENLRDLLHVLAFSKS [LPA-2, 26 amino acid peptide, residues 70-95 of helix III of the human leptin molecule; leptin peptide antagonist]	effectively inhibited the basal expression of p-Stat3	significantly inhibits the leptin up-regulation of Stat3 phosphorylation	–
VAEVLNRSDLIQRISFSLDLNNSKLH [LPA-2Sc, scrambled version of LPA-2, negative control, reference compound]	No inhibitory effect on p-Stat3 expression	not observed	–
leptin: human recombinant leptin (R&D Systems), OB-R ligand used as stimulus	–	–	up-regulated
